Measurements taken from patent US20090099195A1 (ASTRAZENECA AB, priority 2007, published 2009).

Tests used:
[1] = molecular target: T1, rat P2X2/3 (rat P2X3 co-expressed with rat P2X2) (Rattus norvegicus, UniProt P49653+P49654); assay: rat P2X2/3 FLIPR calcium (Fluo-4) antagonist assay; conditions: Rat P2X2/3 FLIPR Mean IC50 (nM), HEK-TREX cells, tetracycline-induced rat P2X3 with constitutive rat P2X2; agonist 500 nM α,β-methylene-ATP
T1 sequence (P49654 1-397): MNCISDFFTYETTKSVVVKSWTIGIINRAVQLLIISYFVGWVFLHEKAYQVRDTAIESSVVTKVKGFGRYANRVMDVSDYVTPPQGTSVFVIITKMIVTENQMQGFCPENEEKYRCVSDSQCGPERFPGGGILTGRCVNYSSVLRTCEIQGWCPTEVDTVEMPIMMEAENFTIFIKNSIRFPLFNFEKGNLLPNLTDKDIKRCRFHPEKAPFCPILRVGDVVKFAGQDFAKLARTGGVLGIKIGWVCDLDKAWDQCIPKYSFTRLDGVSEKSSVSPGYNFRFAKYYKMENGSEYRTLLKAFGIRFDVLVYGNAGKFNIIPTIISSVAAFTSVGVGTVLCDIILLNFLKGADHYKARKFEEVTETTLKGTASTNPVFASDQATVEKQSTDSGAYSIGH
T1 sequence (P49653 1-472): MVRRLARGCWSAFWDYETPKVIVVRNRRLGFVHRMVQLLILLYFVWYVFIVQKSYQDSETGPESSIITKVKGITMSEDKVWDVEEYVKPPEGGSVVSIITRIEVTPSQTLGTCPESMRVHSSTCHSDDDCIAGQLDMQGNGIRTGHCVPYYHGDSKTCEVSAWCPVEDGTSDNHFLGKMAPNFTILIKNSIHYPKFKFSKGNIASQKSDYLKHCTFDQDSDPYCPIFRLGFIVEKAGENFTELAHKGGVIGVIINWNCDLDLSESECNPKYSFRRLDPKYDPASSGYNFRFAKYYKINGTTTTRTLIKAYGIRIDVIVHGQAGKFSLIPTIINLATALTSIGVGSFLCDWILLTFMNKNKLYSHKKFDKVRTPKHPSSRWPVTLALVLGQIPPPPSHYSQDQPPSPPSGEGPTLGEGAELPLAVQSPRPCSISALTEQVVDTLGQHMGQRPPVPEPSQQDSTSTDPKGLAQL
Description: The assay used a calcium indicator dye (Fluo-4) that emits fluorescence, the intensity of which is related to the concentration of calcium that entered the cell when P2X3 was activated and the channel opened. Activation of hP2X3 or rat P2X3 and rat P2X2/3 (from the coexpression of rat P2X3 and rat P2×2) is elicited the by P2X3 agonist α,β methylene-ATP (Sigma M6517), and the resulting fluorescence is measured with a FLIPR II™ instrument (Molecular Devices). Compounds are tested for their ability to inhibit the agonist-induced fluorescent signal.
For the rat P2X2/3 HEK-TREX cells, induction of the rat P2X3 expression is used to generate the rat P2X2/3 channels in HEK-TREX cells and performed by addition of 1 μg/mL tetracycline (Invitrogen) 24 h prior to compounds testing to the HEK-TREX expressing the rat P2X2 constitutively. On the day of the experiment, the cells and test compounds are prepared as follows. […] After preparing the compounds, the medium is removed from the cell plates by inversion. A loading solution of 30 μL assay buffer containing 4 μM of the calcium indicator dye FLUO-4 AM (Molecular Probes F14202) is added to each well using a Multidrop (Labsystems). […] The incubation is terminated by washing the cells four times in assay buffer using a Skatron Embla (Molecular Devices), and 25 μL of assay buffer was left in each well. Cell plates are then transferred to the FLIPR. Experiments are initiated by measuring a baseline fluorescence reading for 10 seconds, followed by the addition of 12.5 μL of cpds and data sampling for a total 280 seconds. The experiments are terminated by addition of 12.5 μL of a reference agonist (500 nM α,β-methylene-ATP) or buffer, producing a final assay volume of 50 μL followed by data sampling for an additional 280 seconds.
In P2X3 antagonist experiments (human and rat assays) data are analysed as normalised maximal peak fluorescence monitored following agonist addition and calculated as percent of relative fluorescent counts from control agonist. The dose-response antagonist inhibition curves are analyzed in a 4-parameter sigmoidal fit using a non-linear curve-fitting program (XLfit version 5.0.6, ID Business Solutions Limited, Guildford, UK).

[2] = molecular target: T2, hP2X3 (human Purinergic P2X receptors subtype 3), clone B (Homo sapiens, UniProt P56373); assay: hP2X3 FLIPR calcium (Fluo-4) antagonist assay, clone B; conditions: Human P2X3 FLIPR Clone B IC50 (nM), RLE cells expressing hP2X3 clone B (NM_002559); agonist 500 nM α,β-methylene-ATP
T2 sequence (P56373 1-397): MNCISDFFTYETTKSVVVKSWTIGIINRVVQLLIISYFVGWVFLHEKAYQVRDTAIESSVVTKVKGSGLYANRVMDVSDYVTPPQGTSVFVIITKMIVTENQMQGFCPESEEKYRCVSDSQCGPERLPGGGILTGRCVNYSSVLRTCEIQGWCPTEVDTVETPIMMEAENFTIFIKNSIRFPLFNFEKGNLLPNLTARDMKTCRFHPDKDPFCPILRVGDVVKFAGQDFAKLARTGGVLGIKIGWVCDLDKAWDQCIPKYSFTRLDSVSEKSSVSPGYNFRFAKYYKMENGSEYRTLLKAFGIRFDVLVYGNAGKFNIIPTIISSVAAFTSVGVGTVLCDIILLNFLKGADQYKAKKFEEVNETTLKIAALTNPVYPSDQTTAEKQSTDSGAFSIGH

IC50 [1] [nM]	IC50 [2] [nM]	SMILES
237	60	CC(=O)N1CCN(c2nc(NC(C)c3cnn(-c4ccccc4)c3)c3c(n2)C(=O)N(C(C)C)C3)CC1 (stereo not drawn) [Example 150, 4-(4-acetylpiperazin-1-yl)-2-[1-(1-phenylpyrazol-4-yl)ethylamino]-8-propan-2-yl-3,5,8-triazabicyclo[4.3.0]nona-1,3,5-trien-7-one]
2910	56	CC(=O)N1CCN(c2nc(NC(C)(C)Cc3ccc(C)cc3)c3c(n2)C(=O)N(C(C)C)C3)CC1 [Example 164, 2-(4-acetylpiperazin-1-yl)-6-isopropyl-4-(2-methyl-1-p-tolylpropan-2-ylamino)-5H-pyrrolo[3,4-d]pyrimidin-7(6H)-one]
11100	43	CC(=O)N1CCN(c2nc(N[C@H](C)c3ccc(I)cc3)c3c(n2)C(=O)N(C(C)C)C3)CC1 [Example 165, (R)-2-(4-acetylpiperazin-1-yl)-4-(1-(4-iodophenyl)ethylamino)-6-isopropyl-5H-pyrrolo[3,4-d]pyrimidin-7(6H)-one]
1900	47	CC(=O)N1CCN(c2nc(N[C@H](C)c3ccc4c(c3)CCCC4)c3c(n2)C(=O)N(C(C)C)C3)CC1 [Example 166, (R)-2-(4-acetylpiperazin-1-yl)-6-isopropyl-4-(1-(5,6,7,8-tetrahydronaphthalen-2-yl)ethylamino)-5H-pyrrolo[3,4-d]pyrimidin-7(6H)-one]
2180	90	COc1ccc(CC(C)(C)Nc2nc(N3CCN(C(C)=O)CC3)nc3c2CN(C(C)C)C3=O)cc1 [Example 196, 2-(4-acetylpiperazin-1-yl)-6-isopropyl-4-(1-(4-methoxyphenyl)-2-methylpropan-2-ylamino)-5H-pyrrolo[3,4-d]pyrimidin-7(6H)-one]
17600	680	CC(=O)N(C)C1CCN(c2nc(NCc3cnc4ccccc4c3)c3c(n2)C(=O)N(C(C)C)C3)C1 (stereo not drawn) [Example 208, N-(1-(6-isopropyl-7-oxo-4-(quinolin-3-ylmethylamino)-6,7-dihydro-5H-pyrrolo[3,4-d]pyrimidin-2-yl)pyrrolidin-3-yl)-N-methylacetamide]
60700	290	COc1cc(C(F)(F)F)ccc1CNc1nc(N2CCN(C(C)=O)CC2)nc2c1CN(C(C)C)C2=O [Example 225, 2-(4-acetylpiperazin-1-yl)-6-isopropyl-4-(2-methoxy-4-(trifluoromethyl)benzylamino)-5H-pyrrolo[3,4-d]pyrimidin-7(6H)-one]
14600	120	CC(=O)N1CCN(c2nc(NCc3cncc4ccccc34)c3c(n2)C(=O)N(C(C)C)C3)CC1 [Example 229, 2-(4-acetylpiperazin-1-yl)-6-isopropyl-4-(isoquinolin-4-ylmethylamino)-5H-pyrrolo[3,4-d]pyrimidin-7(6H)-one]
7380	87	CC(=O)N1CCN(c2nc(N[C@H](C)c3cccc(C(F)(F)F)c3)c3c(n2)C(=O)N(C(C)C)C3)CC1 [Example 230, (R)-2-(4-acetylpiperazin-1-yl)-6-isopropyl-4-(1-(3-(trifluoromethyl)phenyl)ethylamino)-5H-pyrrolo[3,4-d]pyrimidin-7(6H)-one]
74.4	21	CC(=O)N1CCN(c2nc(N[C@H](C)c3cnc4ccccc4c3)c3c(n2)C(=O)N(C(C)C)C3)CC1 [Example 233, (R)-2-(4-acetylpiperazin-1-yl)-6-isopropyl-4-(1-(quinolin-3-yl)ethylamino)-5H-pyrrolo[3,4-d]pyrimidin-7(6H)-one]
13800	83	CC(=O)N1CCN(c2nc(NCc3ccc4ncccc4c3)c3c(n2)C(=O)N(C(C)C)C3)CC1 [Example 235, 2-(4-acetylpiperazin-1-yl)-6-isopropyl-4-(quinolin-6-ylmethylamino)-5H-pyrrolo[3,4-d]pyrimidin-7(6H)-one]
10400	65	CC(=O)N1CCN(c2nc(NCc3ccc4nc(C)ccc4c3)c3c(n2)C(=O)N(C(C)C)C3)CC1 [Example 242, 2-(4-acetylpiperazin-1-yl)-6-isopropyl-4-((2-methylquinolin-6-yl)methylamino)-5H-pyrrolo[3,4-d]pyrimidin-7(6H)-one]
1240	36	CC(=O)N1CCN(c2nc(N[C@H](C)c3ccc4ncccc4c3)c3c(n2)C(=O)N(C(C)C)C3)CC1 [Example 243, (R)-2-(4-acetylpiperazin-1-yl)-6-isopropyl-4-(1-(quinolin-6-yl)ethylamino)-5H-pyrrolo[3,4-d]pyrimidin-7(6H)-one]
2160	28	CCN(Cc1cc2ccccc2cn1)c1nc(N2CCN(C(C)=O)CC2)nc2c1CN(C(C)C)C2=O [Example 245, 2-(4-acetylpiperazin-1-yl)-4-(ethyl(isoquinolin-3-ylmethyl)amino)-6-isopropyl-5H-pyrrolo[3,4-d]pyrimidin-7(6H)-one]
10400	68	CCN(Cc1cnc2ccccc2c1)c1nc(N2CCN(C(C)=O)CC2)nc2c1CN(C(C)C)C2=O [Example 246, 2-(4-acetylpiperazin-1-yl)-4-(ethyl(quinolin-3-ylmethyl)amino)-6-isopropyl-5H-pyrrolo[3,4-d]pyrimidin-7(6H)-one]
9070	77	CC(=O)N1CCN(c2nc(NCc3cc(C)c4ncccc4c3)c3c(n2)C(=O)N(C(C)C)C3)CC1 [Example 247, 2-(4-acetylpiperazin-1-yl)-6-isopropyl-4-((8-methylquinolin-6-yl)methylamino)-5H-pyrrolo[3,4-d]pyrimidin-7(6H)-one]
2110	87	CC(=O)N1CCN(c2nc(NCc3cc4ccccc4c(N(C)C)n3)c3c(n2)C(=O)N(C(C)C)C3)CC1 [Example 252, 2-(4-acetylpiperazin-1-yl)-4-((1-(dimethylamino)isoquinolin-3-yl)methylamino)-6-isopropyl-5H-pyrrolo[3,4-d]pyrimidin-7(6H)-one]
1110	63	CC(=O)N1CCN(c2nc3c(c(N(Cc4cc5ccccc5cn4)CC4CC4)n2)CN(C(C)C)C3=O)CC1 [Example 253, 2-(4-acetylpiperazin-1-yl)-4-((cyclopropylmethyl)(isoquinolin-3-ylmethyl)amino)-6-isopropyl-5H-pyrrolo[3,4-d]pyrimidin-7(6H)-one]
15700	850	CC(=O)N1CCN(c2nc3c(c(N4CCC[C@@H]4C(=O)OCc4ccccc4)n2)CN(C(C)C)C3=O)CC1 [Example 265, benzyl (2R)-1-[4-(4-acetylpiperazin-1-yl)-7-oxo-8-propan-2-yl-3,5,8-triazabicyclo[4.3.0]nona-1,3,5-trien-2-yl]pyrrolidine-2-carboxylate]
12400	500	CC(=O)N1CCN(c2nc3c(c(N4CCCCC4Cc4ccc(F)cc4)n2)CN(C(C)C)C3=O)CC1 (stereo not drawn) [Example 268, 4-(4-acetylpiperazin-1-yl)-2-[2-[(4-fluorophenyl)methyl]-1-piperidyl]-8-propan-2-yl-3,5,8-triazabicyclo[4.3.0]nona-1,3,5-trien-7-one]

SMILES	IC50 [1] [nM]	IC50 [2] [nM]
CCOc1ccc([C@@H](C)Nc2nc(N3CCN(C(C)=O)CC3)nc3c2CN(C(C)C)C3=O)cc1Cl [Example 159, (R)-2-(4-acetylpiperazin-1-yl)-4-(1-(3-chloro-4-ethoxyphenyl)ethylamino)-6-isopropyl-5H-pyrrolo[3,4-d]pyrimidin-7(6H)-one]	547	37
